Experiments:
Format in all cases: in vivo
Descurainia sophia = experiment: Weeding effect in pre-emergence stage; conditions: 30 g/ha, 4 weeks
Summary of the method: (§1)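 Pots were kept in the greenhouse for 4 weeks and then rated for growth control on activity-level criteria. Spraying took place immediately after sowing at application rates of 500 to 7.5 g/ha, using an acetone/tween 80 formulation diluted with water, on seeds under 0.5-2 cm of soil.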

Setaria viridis [1] = experiment: Weeding effect in pre-emergence stage; conditions: 30 g/ha, 4 weeks
Summary of the method: as §1

Abutilon theophrasti [2] = experiment: Weeding effect in pre-emergence stage; conditions: 30 g/ha, 4 weeks
Summary of the method: as §1

Amaranthus retroflexus = experiment: Weeding effect in pre-emergence stage; conditions: 30 g/ha, 4 weeks
Summary of the method: as §1

Veronica didyma Tenore = experiment: Weeding effect in pre-emergence stage; conditions: 30 g/ha, 4 weeks
Summary of the method: as §1

Capsella bursa-pastoris = experiment: Weeding effect in pre-emergence stage; conditions: 30 g/ha, 4 weeks
Summary of the method: as §1

Setaria viridis [3] = experiment: Weeding effect in post-emergence stage; conditions: Dose 15 g/ha
Summary of the method: (§2)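 Compound, dissolved in acetone and diluted in water with Tween 80 plus methyl oleate EC (1.5 liter/ha), is sprayed onto 2-3 leaf potted plants. Rates span 7.5–500 g/ha. After 3 weeks of greenhouse culture, weeding effect is counted as the mean of triplicates.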

Abutilon theophrasti [4] = experiment: Weeding effect in post-emergence stage; conditions: Dose 15 g/ha
Summary of the method: as §2

Alopecurus japonicus = experiment: Weeding effect in post-emergence stage; conditions: Dose 15 g/ha
Summary of the method: as §2

Digitaria sanguinalis = experiment: Weeding effect in post-emergence stage; conditions: Dose 15 g/ha
Summary of the method: as §2

Eleusine indica = experiment: Weeding effect in post-emergence stage; conditions: Dose 15 g/ha
Summary of the method: as §2

Echinochloa crusgalli = experiment: Weeding effect in post-emergence stage; conditions: Dose 15 g/ha
Summary of the method: as §2

cotton = experiment: Pre-emergence stage, crop selectivity; conditions: 30 g/ha, 4 weeks
Summary of the method: as §1

Peanut = experiment: Pre-emergence stage, crop selectivity; conditions: 30 g/ha, 4 weeks
Summary of the method: as §1

Soybeans = experiment: Pre-emergence stage, crop selectivity; conditions: 30 g/ha, 4 weeks
Summary of the method: as §1

corn = experiment: Pre-emergence stage, crop selectivity; conditions: 30 g/ha, 4 weeks
Summary of the method: as §1

[5] = fresh weight control rate level
[6] = level of fresh weight growth control rate

Structure (SMILES) | activity level (growth control rate) Descurainia sophia (Descurainia sophia) | activity level (growth control rate) Setaria viridis (Setaria viridis [1]) | activity level (growth control rate) Abutilon theophrasti (Abutilon theophrasti [2]) | activity level (growth control rate) Amaranthus retroflexus (Amaranthus retroflexus) | activity level (growth control rate) Veronica didyma Tenore (Veronica didyma Tenore) | activity level (growth control rate) Capsella bursa-pastoris (Capsella bursa-pastoris) | plant damage level Cotton (cotton) | plant damage level Peanut (Peanut) | plant damage level Soybeans (Soybeans) | plant damage level Corn (corn) | other results
COC(=O)C(C)(C)O/N=C/c1cc(-n2c(=O)cc(C(F)(F)F)n(C)c2=O)c(F)cc1Cl [Compound 433] | 5 (Level 5: growth control rate is above 85%) | 5 (Level 5: growth control rate is above 85%) | 5 (Level 5: growth control rate is above 85%) | 5 (Level 5: growth control rate is above 85%) | 5 (Level 5: growth control rate is above 85%) | 5 (Level 5: growth control rate is above 85%) | 0 (Level 0: growth control rate is less than 5%) | 0 (Level 0: growth control rate is less than 5%) | 0 (Level 0: growth control rate is less than 5%) | 0 (Level 0: growth control rate is less than 5%) | Weeding effect in post-emergence stage, Setaria viridis (level) (Setaria viridis [3]; [5]): 5 (Level 5: growth control rate is above 85%); Weeding effect in post-emergence stage, Abutilon theophrasti (level) (Abutilon theophrasti [4]; [5]): 5 (Level 5: growth control rate is above 85%); Weeding effect in post-emergence stage, Alopecurus japonicus (level) (Alopecurus japonicus; [5]): 5 (Level 5: growth control rate is above 85%); Weeding effect in post-emergence stage, Digitaria sanguinalis (level) (Digitaria sanguinalis; [5]): 5 (Level 5: growth control rate is above 85%); Weeding effect in post-emergence stage, Eleusine indica (level) (Eleusine indica; [5]): 5 (Level 5: growth control rate is above 85%); Weeding effect in post-emergence stage, Echinochloa crusgalli (level) (Echinochloa crusgalli; [5]): 5 (Level 5: growth control rate is above 85%)
C[C@@H](O/N=C/c1cc(-n2c(=O)cc(C(F)(F)F)n(C)c2=O)c(F)cc1Cl)C(=O)OCC1CCCO1 (stereo partly drawn) [264(R)] | 5 (Level 5: growth control rate is above 85%) | 5 (Level 5: growth control rate is above 85%) | 5 (Level 5: growth control rate is above 85%) | 5 (Level 5: growth control rate is above 85%) | 5 (Level 5: growth control rate is above 85%) | 5 (Level 5: growth control rate is above 85%) | 0 (Level 0: growth control rate is less than 5%) | 0 (Level 0: growth control rate is less than 5%) | 0 (Level 0: growth control rate is less than 5%) | 0 (Level 0: growth control rate is less than 5%) | Weeding effect in post-emergence stage, Setaria viridis (Setaria viridis [3]; [6]): 5 (Level 5: growth control rate is above 85%); Weeding effect in post-emergence stage, Abutilon theophrasti (Abutilon theophrasti [4]; [6]): 5 (Level 5: growth control rate is above 85%); Weeding effect in post-emergence stage, Alopecurus japonicus (Alopecurus japonicus; [6]): 5 (Level 5: growth control rate is above 85%); Weeding effect in post-emergence stage, Digitaria sanguinalis (Digitaria sanguinalis; [6]): 5 (Level 5: growth control rate is above 85%); Weeding effect in post-emergence stage, Eleusine indica (Eleusine indica; [6]): 5 (Level 5: growth control rate is above 85%); Weeding effect in post-emergence stage, Echinochloa crusgalli (Echinochloa crusgalli; [6]): 5 (Level 5: growth control rate is above 85%)

Source: patent US20230111310A1, “CARBOXYLIC ACID DERIVATIVE-SUBSTITUTED IMINO ARYL COMPOUND, PREPARATION METHOD THEREFOR, HERBICIDAL COMPOSITION AND USE THEREOF” (Qingdao Kingagroot Chemical Compound Co., Ltd., priority 2020, published 2023)
